According to ChEMBL document CHEMBL5465560, “Selectivity Literature for EUbOPEN Chemogenomic Library” (2024):
Values belong to the compound of their own block, whether it stands above or below them.

Experiments:
[1] = biological target: Gamma-aminobutyric acid type B receptor subunit 1 (Homo sapiens) (UniProt Q9UBS5); test: Selectivity interaction (Eurofins CEREP Diversity Profile (receptors and ion channels)) EUB0000279b GABBR1; conditions: at 10 µM
[2] = biological target: BMP-2-inducible protein kinase (Homo sapiens) (UniProt Q9NSY1); test: Selectivity interaction (KinomeScan (DiscoverX)) EUB0000655a BMP2K; conditions: at 10 µM
Sequence of BMP-2-inducible protein kinase (Homo sapiens) (Q9NSY1 whole entry, looked up): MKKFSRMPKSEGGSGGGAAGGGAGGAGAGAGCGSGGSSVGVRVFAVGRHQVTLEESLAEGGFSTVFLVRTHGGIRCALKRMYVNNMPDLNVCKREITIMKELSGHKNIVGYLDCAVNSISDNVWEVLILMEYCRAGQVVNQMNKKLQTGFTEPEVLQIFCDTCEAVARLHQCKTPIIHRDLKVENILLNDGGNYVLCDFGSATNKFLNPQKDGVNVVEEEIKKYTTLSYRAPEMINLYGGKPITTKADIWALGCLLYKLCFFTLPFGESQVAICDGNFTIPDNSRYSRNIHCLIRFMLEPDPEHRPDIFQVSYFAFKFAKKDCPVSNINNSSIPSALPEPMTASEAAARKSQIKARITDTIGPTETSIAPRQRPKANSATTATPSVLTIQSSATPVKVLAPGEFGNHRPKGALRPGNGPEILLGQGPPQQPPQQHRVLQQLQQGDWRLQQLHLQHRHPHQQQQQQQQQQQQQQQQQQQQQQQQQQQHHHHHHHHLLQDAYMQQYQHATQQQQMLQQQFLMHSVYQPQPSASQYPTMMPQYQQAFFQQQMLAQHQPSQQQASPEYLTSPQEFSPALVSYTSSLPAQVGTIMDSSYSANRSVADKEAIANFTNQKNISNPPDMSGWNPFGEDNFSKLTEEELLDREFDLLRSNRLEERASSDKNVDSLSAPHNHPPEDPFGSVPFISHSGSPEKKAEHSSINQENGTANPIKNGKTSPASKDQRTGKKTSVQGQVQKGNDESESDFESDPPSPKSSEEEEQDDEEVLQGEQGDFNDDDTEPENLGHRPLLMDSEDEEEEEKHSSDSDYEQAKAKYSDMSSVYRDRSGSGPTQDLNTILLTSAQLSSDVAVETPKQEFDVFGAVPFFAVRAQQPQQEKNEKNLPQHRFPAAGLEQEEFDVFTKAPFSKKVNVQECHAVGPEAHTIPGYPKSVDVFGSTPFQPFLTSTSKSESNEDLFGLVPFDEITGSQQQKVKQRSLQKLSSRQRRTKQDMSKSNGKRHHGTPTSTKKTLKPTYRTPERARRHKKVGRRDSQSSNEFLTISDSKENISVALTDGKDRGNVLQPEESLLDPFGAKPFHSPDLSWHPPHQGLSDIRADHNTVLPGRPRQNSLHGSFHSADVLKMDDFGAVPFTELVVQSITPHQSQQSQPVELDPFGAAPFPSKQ

[3] = biological target: T1, Serine/threonine-protein kinase TNNI3K (Homo sapiens) (UniProt Q59H18); test: Selectivity interaction (KinomeScan (DiscoverX)) EUB0001079a TNNI3K; conditions: at 1 µM
T1 sequence (whole entry): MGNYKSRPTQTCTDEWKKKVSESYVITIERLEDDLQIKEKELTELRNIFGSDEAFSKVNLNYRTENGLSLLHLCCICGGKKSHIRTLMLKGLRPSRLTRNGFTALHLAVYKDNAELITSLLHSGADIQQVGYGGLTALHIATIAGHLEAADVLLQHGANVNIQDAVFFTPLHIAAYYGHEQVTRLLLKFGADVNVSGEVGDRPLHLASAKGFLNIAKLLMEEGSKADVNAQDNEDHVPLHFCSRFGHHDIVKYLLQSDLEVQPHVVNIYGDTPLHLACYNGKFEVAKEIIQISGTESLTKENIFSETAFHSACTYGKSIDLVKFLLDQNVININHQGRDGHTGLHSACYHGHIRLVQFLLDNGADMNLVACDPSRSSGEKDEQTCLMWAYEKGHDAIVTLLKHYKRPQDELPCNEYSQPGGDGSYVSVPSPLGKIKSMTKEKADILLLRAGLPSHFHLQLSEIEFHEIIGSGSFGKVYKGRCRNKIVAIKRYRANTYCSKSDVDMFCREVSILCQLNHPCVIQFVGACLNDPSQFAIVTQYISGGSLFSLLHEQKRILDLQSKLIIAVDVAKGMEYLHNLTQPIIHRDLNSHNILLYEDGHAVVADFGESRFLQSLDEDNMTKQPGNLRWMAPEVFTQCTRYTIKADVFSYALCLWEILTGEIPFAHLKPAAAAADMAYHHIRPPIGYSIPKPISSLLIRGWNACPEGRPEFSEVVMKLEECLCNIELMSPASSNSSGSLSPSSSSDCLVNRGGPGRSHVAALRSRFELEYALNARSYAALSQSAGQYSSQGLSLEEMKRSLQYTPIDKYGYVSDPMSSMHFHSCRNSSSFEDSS

[4] = biological target: Serine/threonine-protein kinase PAK 4 (Homo sapiens, UniProt O96013); test: Selectivity interaction (KinomeScan (DiscoverX)) EUB0000045b PAK4
Sequence of Serine/threonine-protein kinase PAK 4 (O96013 whole entry, looked up): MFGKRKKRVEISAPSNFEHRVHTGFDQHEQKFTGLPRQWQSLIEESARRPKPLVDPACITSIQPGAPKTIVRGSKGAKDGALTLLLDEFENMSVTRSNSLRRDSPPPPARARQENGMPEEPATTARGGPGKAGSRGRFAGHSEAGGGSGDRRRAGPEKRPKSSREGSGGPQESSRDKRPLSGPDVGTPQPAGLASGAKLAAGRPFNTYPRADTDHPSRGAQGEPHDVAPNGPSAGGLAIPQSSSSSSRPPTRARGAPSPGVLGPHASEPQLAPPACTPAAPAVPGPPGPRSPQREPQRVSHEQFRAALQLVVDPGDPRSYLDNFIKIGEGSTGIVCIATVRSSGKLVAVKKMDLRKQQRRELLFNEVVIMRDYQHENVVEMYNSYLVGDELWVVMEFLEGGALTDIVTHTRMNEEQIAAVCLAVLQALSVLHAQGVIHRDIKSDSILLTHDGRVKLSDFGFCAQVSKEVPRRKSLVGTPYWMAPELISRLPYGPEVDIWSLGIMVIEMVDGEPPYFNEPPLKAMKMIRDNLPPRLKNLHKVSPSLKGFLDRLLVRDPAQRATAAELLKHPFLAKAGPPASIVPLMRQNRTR

[5] = biological target: Calcium/calmodulin-dependent protein kinase type II subunit gamma (Homo sapiens) (UniProt Q13555); test: Selectivity interaction (KinomeScan (DiscoverX)) EUB0000666a CAMK2G; conditions: at 10 µM
Sequence of Calcium/calmodulin-dependent protein kinase type II subunit gamma (Homo sapiens) (Q13555 whole entry): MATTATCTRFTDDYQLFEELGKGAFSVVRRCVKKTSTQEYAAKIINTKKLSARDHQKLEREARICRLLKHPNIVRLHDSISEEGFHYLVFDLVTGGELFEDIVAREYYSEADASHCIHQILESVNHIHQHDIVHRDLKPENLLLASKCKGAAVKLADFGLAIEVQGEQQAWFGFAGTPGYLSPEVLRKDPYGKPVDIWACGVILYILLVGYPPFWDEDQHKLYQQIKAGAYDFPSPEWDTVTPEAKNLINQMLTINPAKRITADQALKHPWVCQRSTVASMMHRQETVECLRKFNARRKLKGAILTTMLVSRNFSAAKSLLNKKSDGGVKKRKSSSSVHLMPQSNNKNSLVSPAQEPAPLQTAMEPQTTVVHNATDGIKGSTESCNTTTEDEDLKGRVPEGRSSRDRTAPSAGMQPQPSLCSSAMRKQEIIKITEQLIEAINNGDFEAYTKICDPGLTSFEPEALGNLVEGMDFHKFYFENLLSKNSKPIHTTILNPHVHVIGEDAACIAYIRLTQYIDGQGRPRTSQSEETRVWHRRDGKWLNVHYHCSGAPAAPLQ

[6] = biological target: Interferon-induced, double-stranded RNA-activated protein kinase (Homo sapiens) (UniProt P19525); test: Selectivity interaction (KinomeScan (DiscoverX)) EUB0000666a EIF2AK2; conditions: at 10 µM
Sequence of Interferon-induced, double-stranded RNA-activated protein kinase (Homo sapiens) (P19525 whole entry): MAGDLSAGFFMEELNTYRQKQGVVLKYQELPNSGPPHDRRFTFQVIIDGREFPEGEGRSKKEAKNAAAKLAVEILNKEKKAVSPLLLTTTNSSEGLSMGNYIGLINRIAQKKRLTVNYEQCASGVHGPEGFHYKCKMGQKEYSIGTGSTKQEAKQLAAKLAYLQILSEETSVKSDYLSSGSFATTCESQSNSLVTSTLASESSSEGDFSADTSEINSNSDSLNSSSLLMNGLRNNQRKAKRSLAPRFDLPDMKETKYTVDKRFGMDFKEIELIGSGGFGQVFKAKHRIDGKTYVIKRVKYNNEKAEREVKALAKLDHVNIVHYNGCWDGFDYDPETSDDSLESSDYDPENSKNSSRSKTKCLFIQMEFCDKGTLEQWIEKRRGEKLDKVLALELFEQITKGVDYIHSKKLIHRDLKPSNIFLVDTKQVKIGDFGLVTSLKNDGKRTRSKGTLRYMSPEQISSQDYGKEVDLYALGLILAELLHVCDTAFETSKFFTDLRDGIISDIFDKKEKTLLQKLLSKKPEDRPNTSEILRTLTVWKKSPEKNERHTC

[7] = biological target: T2, Tyrosine-protein kinase Mer (Homo sapiens) (UniProt Q12866); test: Selectivity interaction (KinomeScan (DiscoverX)) EUB0000666a MERTK; conditions: at 10 µM
T2 sequence (whole entry): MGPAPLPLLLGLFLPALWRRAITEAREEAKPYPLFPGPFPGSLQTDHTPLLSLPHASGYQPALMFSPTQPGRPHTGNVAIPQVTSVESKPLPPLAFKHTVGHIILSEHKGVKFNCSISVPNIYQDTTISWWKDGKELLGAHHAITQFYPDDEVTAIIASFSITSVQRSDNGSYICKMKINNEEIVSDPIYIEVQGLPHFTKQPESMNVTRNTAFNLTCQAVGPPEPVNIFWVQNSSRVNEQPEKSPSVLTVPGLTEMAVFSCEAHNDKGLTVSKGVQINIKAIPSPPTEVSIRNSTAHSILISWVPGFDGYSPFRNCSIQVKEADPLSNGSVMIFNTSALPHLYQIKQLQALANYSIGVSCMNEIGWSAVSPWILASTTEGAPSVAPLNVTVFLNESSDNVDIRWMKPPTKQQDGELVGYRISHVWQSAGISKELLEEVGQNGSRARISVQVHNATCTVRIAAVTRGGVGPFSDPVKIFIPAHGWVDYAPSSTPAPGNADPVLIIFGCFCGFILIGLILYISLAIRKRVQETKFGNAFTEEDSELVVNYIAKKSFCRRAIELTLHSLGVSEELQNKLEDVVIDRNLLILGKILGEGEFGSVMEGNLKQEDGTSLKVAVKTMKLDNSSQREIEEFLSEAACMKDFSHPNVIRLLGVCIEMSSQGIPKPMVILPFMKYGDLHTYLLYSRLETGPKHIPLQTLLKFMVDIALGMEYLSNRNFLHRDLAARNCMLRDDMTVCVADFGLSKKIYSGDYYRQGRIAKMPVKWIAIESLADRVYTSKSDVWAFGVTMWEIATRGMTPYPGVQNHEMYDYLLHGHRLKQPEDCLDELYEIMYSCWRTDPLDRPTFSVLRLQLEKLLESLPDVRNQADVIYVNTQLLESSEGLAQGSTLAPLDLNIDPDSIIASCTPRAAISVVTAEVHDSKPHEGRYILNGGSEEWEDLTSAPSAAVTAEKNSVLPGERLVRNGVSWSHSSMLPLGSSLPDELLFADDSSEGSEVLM

[8] = biological target: CDK4/Cyclin D3 (Homo sapiens) (UniProt P11802+P30281); test: (§1) Selectivity interaction (KinomeScan (DiscoverX)) EUB0000666a CDK4; type: protein-complex assay; conditions: at 10 µM
[9] = biological target: Cyclin-dependent kinase 4/cyclin D1 (Homo sapiens) (UniProt P11802+P24385); test: as §1; type: protein-complex assay; conditions: at 10 µM

Sequence of Gamma-aminobutyric acid type B receptor subunit 1 (Homo sapiens) (Q9UBS5 whole entry): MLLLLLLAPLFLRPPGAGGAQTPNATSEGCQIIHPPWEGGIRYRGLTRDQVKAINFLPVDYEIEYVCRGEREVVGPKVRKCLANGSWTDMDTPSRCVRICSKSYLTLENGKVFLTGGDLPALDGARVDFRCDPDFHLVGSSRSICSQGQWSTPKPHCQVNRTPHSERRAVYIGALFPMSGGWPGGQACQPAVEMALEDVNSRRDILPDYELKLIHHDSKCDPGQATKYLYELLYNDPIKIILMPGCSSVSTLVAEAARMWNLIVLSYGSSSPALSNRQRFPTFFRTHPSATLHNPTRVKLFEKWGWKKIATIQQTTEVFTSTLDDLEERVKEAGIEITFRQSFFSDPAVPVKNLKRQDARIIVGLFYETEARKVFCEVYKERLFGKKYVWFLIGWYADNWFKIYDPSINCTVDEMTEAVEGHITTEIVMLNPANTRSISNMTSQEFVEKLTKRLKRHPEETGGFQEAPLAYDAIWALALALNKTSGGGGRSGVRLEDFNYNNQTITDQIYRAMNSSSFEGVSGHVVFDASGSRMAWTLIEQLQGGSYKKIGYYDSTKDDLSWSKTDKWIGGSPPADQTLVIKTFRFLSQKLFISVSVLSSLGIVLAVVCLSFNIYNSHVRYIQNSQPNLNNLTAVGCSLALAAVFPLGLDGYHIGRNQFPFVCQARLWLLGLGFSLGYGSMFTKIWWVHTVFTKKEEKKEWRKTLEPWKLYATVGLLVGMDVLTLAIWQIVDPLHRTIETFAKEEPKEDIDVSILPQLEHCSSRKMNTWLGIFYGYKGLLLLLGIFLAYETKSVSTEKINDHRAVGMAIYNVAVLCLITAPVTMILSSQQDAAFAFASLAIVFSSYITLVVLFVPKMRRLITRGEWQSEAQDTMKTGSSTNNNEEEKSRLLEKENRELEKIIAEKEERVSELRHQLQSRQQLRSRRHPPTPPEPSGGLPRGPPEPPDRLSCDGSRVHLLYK

% of control [1]: 100%
SMILES: CC(=O)c1cc(-c2ccccc2OCC2CC2)c2ncccn12

SMILES: CN(C)CCOc1ccc(-c2nc(-c3ccncc3)c(-c3ccc4c(c3)CC/C4=N\O)[nH]2)cc1
% of control [2]: 82%

SMILES: Nc1cnc(N2CCc3cc(S(=O)(=O)Nc4c(F)cc(Cl)cc4F)cc(N4CCCC4=O)c32)nc1 [TP-020n]
% of control [3]: 49%

SMILES: C=CC(=O)Nc1cc(-n2c(=O)ccc3cnc4ccc(-c5ccc(NS(C)(=O)=O)cc5)cc4c32)ccc1C
% of control ([4]; at 1 µM): 100% | % of control ([4]; at 10 µM): 100%

SMILES: O=C(NOC[C@H](O)CO)c1ccc(F)c(F)c1Nc1ccc(I)cc1F
% of control [5]: 100% | % of control [6]: 100% | % of control [7]: 100% | % of control [8]: 84% | % of control [9]: 93%
